Test results as given in patent US20130317048A1, “COMBINATION COMPRISING PACLITAXEL FOR TREATING OVARIAN CANCER” (Actelion Pharmaceuticals Ltd., priority 2008, published 2013).

What was measured:
ovarian cancer = settings: combined with paclitaxel; cited from earlier work
ovarian tumor cells = settings: in vitro; cited from earlier work
HeyA8-MDR cells = assay: Multi-drug resistant human ovarian HeyA8-MDR tumor growth inhibition assay in mice; assay type: in vivo; settings: female nude mice i.p. HeyA8-MDR; after 4 weeks of treatment; paclitaxel 5 mg/kg once a week i.p.; CF(I) 50 mg/kg once a day oral
Procedure: (§1) The vehicle solution is the same as that described for the “Human SKOV3ip1 tumor growth inhibition assay in mice” (see above).
43 female nude mice are injected i.p. with 10^6 HeyA8-MDR cells into the peritoneal cavity. Ten days later, the tumor weight is evaluated in three of the mice. Mice groups and treatments (doses, frequencies and routes) for the mice groups are the same as those described in the experimental procedure for the “Human IGROV tumor growth inhibition assay in mice” (see above). After 4 weeks of treatment, the tumor incidence and weight are determined in each of the mice.

IGROV cells = assay: Human IGROV tumor growth inhibition assay in mice; assay type: in vivo; settings: female nude mice i.p. IGROV; after 4 weeks of treatment; paclitaxel 5 mg/kg once a week i.p.; CF(I) 50 mg/kg once a day oral
Procedure: as §1
(§2) 43 female nude mice are injected i.p. with 10^6 IGROV cells into the peritoneal cavity. Ten days later, the tumor weight is evaluated in three of the mice. Treatment with a suspension of the compound of formula (I) in the vehicle solution (10 mice), paclitaxel diluted 1:6 in phosphate buffered saline (PBS) for i.p. injections (10 mice), a suspension of the compound of formula (I) in the vehicle solution as well as paclitaxel diluted 1:6 in PBS for i.p. injections (10 mice), or the vehicle solution only (10 mice), the vehicle solution being as described above, is administered to the mice using the following doses, frequencies and routes: • paclitaxel: 5 mg/kg (125 μg paclitaxel in 200 μL PBS per mouse), once a week, i.p. route; • compound of formula (I): 50 mg/kg (as suspension in the vehicle solution at a concentration of up to 25 mg/mL), once a day, oral route.
After 4 weeks of treatment, the tumor incidence and weight are determined in each of the mice.

SKOV3ip1 cells = assay: Human SKOV3ip1 tumor growth inhibition assay in mice; assay type: in vivo; settings: mice i.p. SKOV3ip1, after one month of treatment, paclitaxel 5 mg/kg once a week i.p., CF(I) 100 mg/kg once a day oral
Procedure: An aqueous 0.5% (by weight) solution of methylcellulose is prepared by stiffing the appropriate quantity of methylcellulose in the appropriate quantity of water for 4 hours. This solution can be prepared up to 3 days in advance. On the day of the experiment, 0.05% (by volume) of Tween 80 is dissolved in the methylcellulose solution previously obtained to yield the vehicle solution.
as §2, with “43 mice are” for “43 female nude mice are”, “with 10^6 SKOV3ip1 cells. Ten days” for “with 10^6 IGROV cells into the peritoneal cavity. Ten days”, “mice), paclitaxel (Mead Johnson, Princeton, N.J., USA) diluted 1:6” for “mice), paclitaxel diluted 1:6”, “PBS for further dilution and i.p. injections” for “PBS for i.p. injections”, “formula (I): 100 mg/kg (as” for “formula (I): 50 mg/kg (as”
After one month of treatment, the tumor incidence and weight are determined in each of the mice. At the same time, the ascite incidence and volume are also determined.

human ovarian carcinoma = settings: in vitro and in vivo; cited from earlier work

Row | Compound | Body weight (g) Mean ± S.D. (HeyA8-MDR cells) | Tumor incidence (HeyA8-MDR cells) | Tumor weight (g) Median (range) (HeyA8-MDR cells) | Body weight (g) Mean ± S.D. (IGROV cells) | Tumor incidence (IGROV cells) | Tumor weight (g) Median (range) (IGROV cells) | Ascite incidence (SKOV3ip1 cells) | Ascites (mL) Median (range) (SKOV3ip1 cells) | Body weight (g) Mean ± S.D. (SKOV3ip1 cells) | Tumor incidence (SKOV3ip1 cells) | Tumor weight (g) Median (range) (SKOV3ip1 cells) | further results
1 | CCCCN(CCCC)C(=O)CN1C[C@H](c2ccc3c(c2)OCO3)[C@@H](C(=O)O)[C@@H]1c1ccc(OC)cc1 [ABT-627, atrasentan] |  |  |  |  |  |  |  |  |  |  |  | Effect of combination with paclitaxel (ovarian cancer): additive antitumor, apoptotic and antiangiogenic effects
2 | CCCC[C@@H](NC(=O)[C@@H](Cc1cn(C(=O)OC)c2ccccc12)NC(=O)[C@H](CC(C)(C)C)NC(=O)N1[C@H](C)CCC[C@@H]1C)C(=O)O [BQ 788] |  |  |  |  |  |  |  |  |  |  |  | Inhibition of cell adhesiveness (ovarian tumor cells): ineffective
3 | CCCNS(=O)(=O)Nc1ncnc(OCCOc2ncc(Br)cn2)c1-c1ccc(Br)cc1 [CF(I), macitentan] | 27.0 ± 2.2 g | 6/10 | 0.1 (0-0.3) g | 31.0 ± 4.4 g | 10/10 | 0.7 (0.4-1.3) g | 7/10 | 0.4 (0-4.7) mL | 25.5 ± 2.6 g | 7/10 | 2.3 (0-4.6) g | Ascite incidence (SKOV3ip1 cells; listed as compound of formula (I)): 7 out of 10
4 | CC(=O)O[C@H]1C(=O)[C@@]2(C)[C@H]([C@H](OC(=O)c3ccccc3)[C@]3(O)C[C@H](OC(=O)[C@H](O)[C@@H](NC(=O)c4ccccc4)c4ccccc4)C(C)=C1C3(C)C)[C@]1(OC(C)=O)CO[C@@H]1C[C@@H]2O [Paclitaxel] | 27.7 ± 3.7 g | 10/10 | 1.0 (0.5-2.3) g | 28.5 ± 2.4 g | 9/10 | 0.5 (0-0.9) g | 4/9 | 0.1 (0-0.2) mL | 23.6 ± 1.9 g | 9/9 | 0.4 (0.1-0.5) g | Ascite incidence (SKOV3ip1 cells; listed as paclitaxel): 4 out of 9; Tumor incidence (SKOV3ip1 cells; listed as paclitaxel): all mice still had tumors
5 | COc1nc(C)cnc1NS(=O)(=O)c1cccnc1-c1ccc(-c2nnco2)cc1 [ZD4054] |  |  |  |  |  |  |  |  |  |  |  | Effect on tumor growth and paclitaxel activity (human ovarian carcinoma): inhibits tumor growth and enhances paclitaxel activity
